Key:
Assay in all cases: Test D controlled growth environment herbicide test, pre- and postemergence
Type in all cases: in vivo
[1] = tested on: blackgrass (Alopecurus myosuroides)
Text: (§1) Seeds of plant species selected from bluegrass (annual bluegrass, Poa annua), blackgrass (Alopecurus myosuroides), Canada thistle (Cirsium arvense), canarygrass (Phalaris minor), chickweed (common chickweed, Stellaria media), geranium, cutleaf (cutleaf geranium, Geranium dissectum), galium (catchweed bedstraw, Galium aparine), bromegrass, downy (downy bromegrass, Bromus tectorum), field poppy (Papaver rhoeas), field violet (Viola arvensis), foxtail, green (green foxtail, Setaria viridis), deadnettle (henbit deadnettle, Lamium amplexicaule), ryegrass, Italian (Italian ryegrass, Lolium multiflorum), kochia (Kochia scoparia), lambsquarters (Chenopodium album), oilseed rape (Brassica napus), pigweed (Amaranthus retroflexus), chamomile (scentless chamomile, Matricaria inodora), Russian thistle (Salsola kali), speedwell (bird's-eye speedwell, Veronica persica), barley, spring (spring barley, Hordeum vulgare), wheat, spring (spring wheat, Triticum aestivum), buckwheat, wild (wild buckwheat, Polygonum convolvulus), mustard, wild (wild mustard, Sinapis arvensis), oat, wild (wild oat, Avena fatua), radish, wild (wild radish, Raphanus raphanistrum), windgrass (Apera spica-venti), barley, winter (winter barley, Hordeum vulgare), and wheat, winter (winter wheat, Triticum aestivum) were planted into a silt loam soil and treated preemergence with test chemicals formulated in a non-phytotoxic solvent mixture which included a surfactant.
(§2) At the same time, these species were planted in pots containing Redi-Earth® planting medium (Scotts Company, 14111 Scottslawn Road, Marysville, Ohio 43041) comprising spaghnum peat moss, vermiculite, wetting agent and starter nutrients and treated with postemergence applications of the test chemicals formulated in the same manner. Plants ranged in height from 2 to 18 cm (1- to 4-leaf stage). Treated plants and controls were maintained in a controlled growth environment for 14 to 21 d after which time all species were compared to controls and visually evaluated. Plant response ratings, summarized in Table D, are based on a scale of 0 to 100 where 0 is no effect and 100 is complete control. A dash (-) response means no test result.

[2] = tested on: bromegrass, downy (downy bromegrass, Bromus tectorum)
Text: as §1, §2

[3] = tested on: buckwheat, wild (wild buckwheat, Polygonum convolvulus)
Text: as §1, §2

[4] = tested on: chamomile (scentless chamomile, Matricaria inodora)
Text: as §1, §2

[5] = tested on: deadnettle (henbit deadnettle, Lamium amplexicaule)
Text: as §1, §2

[6] = tested on: foxtail, green (green foxtail, Setaria viridis)
Text: as §1, §2

[7] = tested on: galium (catchweed bedstraw, Galium aparine)
Text: as §1, §2

kochia (Kochia scoparia) = tested on: kochia (Kochia scoparia)
Text: as §1, §2

[8] = tested on: mustard, wild (wild mustard, Sinapis arvensis)
Text: as §1, §2

[9] = tested on: oilseed rape (Brassica napus)
Text: as §1, §2

[10] = tested on: pigweed (Amaranthus retroflexus)
Text: as §1, §2

[11] = tested on: ryegrass, Italian (Italian ryegrass, Lolium multiflorum)
Text: as §1, §2

[12] = tested on: speedwell (bird's-eye speedwell, Veronica persica)
Text: as §1, §2

[13] = tested on: windgrass (Apera spica-venti)
Text: as §1, §2

[14] = Postemergence, 31 g ai/ha, scale 0 to 100 (0 no effect, 100 complete control)
[15] = Postemergence, 125 g ai/ha, visual rating on scale 0 (no effect) to 100 (complete control), 14 to 21 d
[16] = Postemergence, 250 g ai/ha, scale 0 to 100 (0 no effect, 100 complete control)
[17] = Preemergence, 62 g ai/ha, scale 0 to 100 (0 no effect, 100 complete control)
[18] = Preemergence, 125 g ai/ha, scale 0 to 100 (0 no effect, 100 complete control)
[19] = Preemergence, 250 g ai/ha, scale 0 to 100, 0 no effect, 100 complete control
[20] = postemergence, 62 g ai/ha, scale 0 to 100, 0 no effect, 100 complete control

Cc1nn(C)c(=O)c(-c2cccc3ccccc23)c1O [Compound 11, 5-hydroxy-2,6-dimethyl-4-(1-naphthalenyl)-3(2H)-pyridazinone]
Blackgrass plant response rating [1, 14]: 25 | Plant response rating, Blackgrass [1, 15]: 70 | Plant response rating, Blackgrass [1, 16]: 70 | Plant response rating (scale of 0 to 100), Blackgrass ([1]; Preemergence, 31 g ai/ha): 5 | Plant response rating, Blackgrass [1, 17]: 30 | Plant response rating, Blackgrass [1, 18]: 55 | Blackgrass plant response rating [1, 19]: 75 | Plant response rating, Blackgrass [1, 20]: 40 | Bromegrass, Downy plant response rating [2, 14]: 15 | Plant response rating, Bromegrass, Downy [2, 15]: 25 | Plant response rating, Bromegrass, Downy [2, 16]: 50 | Plant response rating (scale of 0 to 100), Bromegrass, Downy ([2]; Preemergence, 31 g ai/ha): 5 | Plant response rating, Bromegrass, Downy [2, 17]: 5 | Plant response rating, Bromegrass, Downy [2, 18]: 20 | Plant response rating, Bromegrass, Downy [2, 19]: 55 | Plant response rating, Bromegrass, Downy [2, 20]: 15 | Buckwheat, Wild plant response rating [3, 14]: 45 | Plant response rating, Buckwheat, Wild [3, 15]: 60 | Plant response rating, Buckwheat, Wild [3, 16]: 95 | Plant response rating (scale of 0 to 100), Buckwheat, Wild ([3]; Preemergence, 31 g ai/ha): 20 | Plant response rating, Buckwheat, Wild [3, 17]: 15 | Plant response rating, Buckwheat, Wild [3, 18]: 15 | Plant response rating, Buckwheat, Wild [3, 19]: 25 | Plant response rating, Buckwheat, Wild [3, 20]: 45 | Chamomile plant response rating [4, 14]: 40 | Plant response rating, Chamomile [4, 15]: 75 | Plant response rating, Chamomile [4, 16]: 90 | Plant response rating, Chamomile [4, 20]: 65 | Deadnettle plant response rating [5, 14]: 75 | Plant response rating, Deadnettle [5, 15]: 100 | Plant response rating, Deadnettle [5, 16]: 100 | Plant response rating (scale of 0 to 100), Deadnettle ([5]; Preemergence, 31 g ai/ha): 10 | Plant response rating, Deadnettle [5, 17]: 15 | Plant response rating, Deadnettle [5, 18]: 50 | Plant response rating, Deadnettle [5, 19]: 100 | Plant response rating, Deadnettle [5, 20]: 100 | Foxtail, Green plant response rating [6, 14]: 5 | Plant response rating, Foxtail, Green [6, 15]: 65 | Plant response rating, Foxtail, Green [6, 16]: 70 | Plant response rating (scale of 0 to 100), Foxtail, Green ([6]; Preemergence, 31 g ai/ha): 10 | Plant response rating, Foxtail, Green [6, 17]: 10 | Plant response rating, Foxtail, Green [6, 18]: 15 | Plant response rating, Foxtail, Green [6, 19]: 65 | Plant response rating, Foxtail, Green [6, 20]: 25 | Galium plant response rating [7, 14]: 85 | Plant response rating, Galium [7, 15]: 90 | Plant response rating, Galium [7, 16]: 90 | Plant response rating (scale of 0 to 100), Galium ([7]; Preemergence, 31 g ai/ha): 70 | Plant response rating, Galium [7, 17]: 80 | Plant response rating, Galium [7, 18]: 100 | Plant response rating, Galium [7, 19]: 100 | Plant response rating, Galium [7, 20]: 85 | Kochia plant response rating (kochia (Kochia scoparia); [14]): 60 | Plant response rating, Kochia (kochia (Kochia scoparia); [15]): 85 | Plant response rating, Kochia (kochia (Kochia scoparia); [16]): 100 | Plant response rating (scale of 0 to 100), Kochia (kochia (Kochia scoparia); Preemergence, 31 g ai/ha): 10 | Plant response rating, Kochia (kochia (Kochia scoparia); [17]): 40 | Plant response rating, Kochia (kochia (Kochia scoparia); [18]): 75 | Plant response rating, Kochia (kochia (Kochia scoparia); [19]): 95 | Plant response rating, Kochia (kochia (Kochia scoparia); [20]): 75 | Mustard, Wild plant response rating [8, 14]: 65 | Plant response rating, Mustard, Wild [8, 15]: 75 | Plant response rating, Mustard, Wild [8, 16]: 95 | Plant response rating (scale of 0 to 100), Mustard, Wild ([8]; Preemergence, 31 g ai/ha): 0 | Plant response rating, Mustard, Wild [8, 17]: 20 | Plant response rating, Mustard, Wild [8, 18]: 75 | Plant response rating, Mustard, Wild [8, 19]: 100 | Plant response rating, Mustard, Wild [8, 20]: 70 | Oilseed Rape plant response rating [9, 14]: 0 | Plant response rating, Oilseed Rape [9, 15]: 20 | Plant response rating, Oilseed Rape [9, 16]: 55 | Plant response rating (scale of 0 to 100), Oilseed Rape ([9]; Preemergence, 31 g ai/ha): 5 | Plant response rating, Oilseed Rape [9, 17]: 0 | Plant response rating, Oilseed Rape [9, 18]: 5 | Plant response rating, Oilseed Rape [9, 19]: 5 | Plant response rating, Oilseed Rape [9, 20]: 15 | Pigweed plant response rating [10, 14]: 35 | Plant response rating, Pigweed [10, 15]: 95 | Plant response rating, Pigweed [10, 16]: 100 | Plant response rating (scale of 0 to 100), Pigweed ([10]; Preemergence, 31 g ai/ha): 0 | Plant response rating, Pigweed [10, 17]: 0 | Plant response rating, Pigweed [10, 18]: 98 | Plant response rating, Pigweed [10, 19]: 100 | Plant response rating, Pigweed [10, 20]: 65 | Ryegrass, Italian plant response rating [11, 14]: 80 | Plant response rating, Ryegrass, Italian [11, 15]: 85 | Plant response rating, Ryegrass, Italian [11, 16]: 90 | Plant response rating (scale of 0 to 100), Ryegrass, Italian ([11]; Preemergence, 31 g ai/ha): 85 | Plant response rating, Ryegrass, Italian [11, 17]: 90 | Plant response rating, Ryegrass, Italian [11, 18]: 100 | Plant response rating, Ryegrass, Italian [11, 19]: 100 | Plant response rating, Ryegrass, Italian [11, 20]: 85 | Speedwell plant response rating [12, 14]: 0 | Plant response rating, Speedwell [12, 15]: 100 | Plant response rating, Speedwell [12, 16]: 100 | Plant response rating (scale of 0 to 100), Speedwell ([12]; Preemergence, 31 g ai/ha): 0 | Plant response rating, Speedwell [12, 17]: 15 | Plant response rating, Speedwell [12, 18]: 85 | Plant response rating, Speedwell [12, 19]: 100 | Plant response rating, Speedwell [12, 20]: 100 | Windgrass plant response rating [13, 14]: 10 | Plant response rating, Windgrass [13, 15]: 15 | Plant response rating, Windgrass [13, 16]: 20 | Plant response rating (scale of 0 to 100), Windgrass ([13]; Preemergence, 31 g ai/ha): 25 | Plant response rating, Windgrass [13, 17]: 35 | Plant response rating, Windgrass [13, 18]: 55 | Plant response rating, Windgrass [13, 19]: 75 | Plant response rating, Windgrass [13, 20]: 10

Source: US10597388B2, “Pyridazinone herbicides” (FMC CORPORATION, priority 2014, dated 2020)
